Assay results from patent US10106582B2, “Complex-formation-modulating agents and uses therefor” (Factor Therapeutics Limited, priority 2012, dated 2018).

Tests used:
Format in all cases: cell-based, human
[1] = test system: MCF-7 cells; experiment: 3D Matrigel growth assay of MCF-7 tumor spheroids
Description: FIG. 7 is a photographic and graphical representation showing MCF-7 3D cell growth in response to peptide antagonists. MCF-7 cells suspended in media containing 1% serum and 2.5% Matrigel (Matrigel media) were layered onto a thin layer of 100% Matrigel. Spheroids were allowed to form in Matrigel media containing VN, TRI or TRI supplemented with peptides P7 and P8. Cells were allowed to grow for 14 days with media+proteins changed every 3 days. (A) Phase contrast and fluorescence microscopy was used to obtain images of the spheroids treated with 90 nM P7, P8 or P7+8. The fluorescent images were subjected to analysis using Image J to calculate spheroid sizes. The images post-ImageJ analyses are depicted in the bottom panel of A. All the images depicted are representative images obtained from triplicate experiments with treatments tested in duplicates in each replicate experiment. Scale bar denotes 100 μm. (B) Scatter plot depicts mean spheroid size (μm^2) at Day 14 for each treatment, calculated using Image-J (90 nM peptide treatments are depicted here). Each data point in the graph is the average size of all spheroids present in a single field of view at 40× magnification. ** denotes p<0.01 and * denotes p<0.05. (C) To measure cell viability/proliferation the 3D culture was treated on Day 14 with 5% Alamar Blue dye for 4 hours and fluorescence intensities were recorded. Error bars indicate SEM. ** denotes p<0.01 Vs TRI and * denotes p<0.05 Vs TRI. The experiment was repeated twice with treatments tested in duplicate wells in each replicate experiment. TRI=IGF-I:IGFBP-5:VN trimeric complex (equimolar at 10 nM concentrations).
To closely mimic in vivo conditions, cells were grown in a 3D matrix (Matrigel) closely resembling in vivo extracellular matrix physiology. MCF-7 cells suspended in growth media containing 1% serum and 2.5% Matrigel (Matrigel media) were layered onto a thin layer of 100% Matrigel. Tumor spheroids were allowed to form for 3 days after which spent media was replenished with Matrigel media containing VN only, trimeric complex, or trimeric complex supplemented with increasing concentrations of peptides (P7, P8 or P7+P8). Cells were allowed to grow for additional 11 days with media+proteins changed every 3 days. Spheroid morphology was assessed using phase-contrast microscopy and cell viability was measured using AlamarBlue, a fluorescent metabolic dye.

[2] = test system: MCF-7 cells; experiment: Transwell migration assay, IGF-I+IGFBP-3+VN (TRI)-stimulated MCF-7 cell migration
Method: FIG. 6 is a graphical representation showing MCF-7 cell migration in response to VN peptides. MCF-7 cells were seeded onto the upper-surface of a Transwell inserts coated on the under-surface with treatments containing IGF-I+IGFBP-3+VN (TRI; 10 nM) with or without increasing concentrations of either peptide P7, P8 or Pneg. Migration was assessed after 15 hours. Data is represented as percentage of change in migration compared to the TRI only control. Error bars indicate standard error mean.
This assay has been repeated three times with treatments tested in triplicate wells in each replicate experiment.
The breast cancer epithelial cell line MCF-7 was used for this assay. Migration was assessed by measuring relative number of cells migrating through 8-μm pore Transwell membranes in response to substrate-bond proteins complexes. IGFBP-3 was allowed to bind either peptide P7, P8 or a combination of P7 and P8 for 2 hours. IGF-I was later added to this protein mix which was then added to Transwells pre-coated with VN. Post-overnight incubation, unbound proteins were removed, Transwells washed twice and cells seeded onto the upper chamber. Cells migrated to the under-surface over 15 hours were indirectly quantified using crystal violet staining.

[3] = test system: MCF-7 cells; experiment: Transwell migration assay, IGF-I+IGFBP-5+VN trimeric complex-stimulated MCF-7 cell migration
Description: Two motifs (motifs 1 and 8) within native VN, deemed potentially significant in supporting the binding of IGF-II, IGFBP-3 and IGFBP-5, were identified as outlined in the previous section. After preliminary in silico analyses motif 8 (J4-7) was deemed as potentially the most significant region within native VN supporting binding interactions of all the three IGF-II, IGFBP-3 and IGFBP-5 proteins and was chosen for the initial analyses. The VN-peptide covering the sequences of motif 8 was designed such that it covered all the 3AA frameshift sets that contributed to a positive spot within the motif 8 (see, FIG. 3 and Table 7). The sequence of this peptide is RVNLRTRRVDTVDPPYPRS [SEQ ID NO:100] and is designated P8. […] The sequence of that peptide is […] [SEQ ID NO:86] and is designated P7. […] The functional effects of these peptides on IGF-I:IGFBP:VN-stimulated breast cancer cell migration were investigated using Transwell® assays. Transwells® were pre-bound with VN, either alone or in combination with IGF-I and IGFBP-5 (TRI). Treatment with TRI supplemented with increasing concentrations of peptides P7 and/or P8 were assayed. TRI supplemented with Anlg or Neg peptide were included as positive and negative controls of migration inhibition, respectively. All unbound proteins were removed with washing and MCF-7 cell migration was assessed over 15 hours.
The Transwell® inserts were prepared by pre-binding the lower chamber and the under-surface of the 8-μm pore membranes with proteins as described below. For all 2D functional assays described throughout this study, including Transwell® the treatments for the pre-binding steps were VN, IGF-I+IGFBP-5+VN (TRI) complex, either alone or in combination with respective controls or VN-peptides. The concentrations of the proteins added into the culture wells were VN, 1 μg/mL; IGF-I, 30 ng/mL and IGFBP-5, 90 ng/mL, unless otherwise stated. The concentration of VN-peptides used are indicated where appropriate.
Optimal IGF-I:IGFBP-5:VN-mediated attachment and migration of MCF-7 cells in multiwell plates is obtained by pre-binding human native-IGF-I and/or IGFBP-5 and VN at concentrations of 30 ng/mL, 90 ng/mL and 1 μg/mL per well, respectively, to the lower chambers and under surfaces of Transwells®. […] For Anlg, concentrations varying from 30 ng/mL to 300 ng/mL were used.
Transwells® were prepared by pre-binding the test proteins, either alone or in combinations, to the lower chambers and under-surfaces of Transwells® following procedures previously described (Kricker et al., 2003). Briefly, 0.5 mL DMEM/F12 serum-free phenol-red free medium (SFM) containing 1 μg/mL VN was added to the lower chambers of 24-well, 8-μm pore Transwell® plates and incubated for 3 hours at 37° C. Unbound VN was removed and the wells were washed twice with 0.5 mL SFM+0.5% BSA following which 0.5 mL of SFM+0.5% BSA was placed in the lower chamber to block surfaces with no protein bound. To pre-bind growth factors, 0.5 mL SFM+0.05% BSA containing native IGF-I (30 ng/mL), IGFBP-5 (90 ng/mL) or Anlg, either alone or in combination, were added to the lower chambers of the Transwells® and incubated overnight at 4° C. The solution containing unbound growth factors was removed and the wells were washed twice with SFM+0.05% BSA and replaced with 0.5 mL of SFM+0.05% BSA. Throughout the pre-binding procedure care was taken to keep the upper surface of the Transwell® inserts dry.
Migration assays were essentially performed following protocols described previously in Leavesley et al 1993, J Cell Biol. 121:163-70. The cells in culture flasks were split 1:1, 24 hours prior to performing the migration assay. The cells were serum-starved for 4 hours and a cell suspension containing 6×10^4 cells in 200 μL SFM+0.05% BSA was seeded onto the upper-surface of the pre-coated Transwell® inserts and incubated for 15 hours at 37° C., 5% CO2 (refer to above for proteins pre-bound and concentrations used). […]

Sequence: RVNLRTRRVDTVDPPYPRS (listed as Homo sapiens) [Peptide P8, human VN motif 8 mimic]
- TRI-stimulated cell viability (AlamarBlue) ([1]; 90 nM peptide, Day 14, 3D Matrigel culture): significantly inhibit
- Spheroid size (ImageJ) versus control TRI treatment ([1]; 90 nM peptide, Day 14, phalloidin staining): highest inhibitory effects
- Size of TRI-treated tumor spheroids (phase-contrast microscopy) ([1]; increasing concentrations of peptides, Matrigel 3D culture, 14 days): decrease with increasing concentrations
- Inhibition of TRI-stimulated MCF-7 cell migration ([2]; 30 nM peptide dose, TRI 10 nM, 15 hours (most significant inhibition)): returned to the ‘VN only’ treatment levels
- Inhibition of TRI-stimulated MCF-7 cell migration ([2]; increasing peptide concentrations added to TRI (IGF-I+IGFBP-3+VN; 10 nM), 15 hours): dose dependent inhibition
- MCF-7 cell migration ([3]; TRI supplemented with peptide at 3× molar concentration of IGFBP-5 (43 ng/mL P7, 38 ng/mL P8), 15 hours): 94.4±1 % of VN
- MCF-7 cell migration ([3]; TRI supplemented with peptide at 9× molar concentration of IGFBP-5, 15 hours): 121.7±8 % of VN
